What is called IC50 is the concentration that gives 50% inhibition. Usually solubility stands for the concentration that dissolves in the medium under given conditions. Broadly, the logP is the decadic logarithm of the partition coefficient of the neutral form, usually between octanol and water. Low values mean a more hydrophilic compound, high ones a more lipophilic compound. As a reminder, the Cmax is the maximum level reached in the sampled fluid or tissue. The term AUC(0-t) denotes exposure summed from dosing to a finite time, without extrapolation to infinity. The low end stands for less exposure, the high end for more exposure.

Structures are written as SMILES. ≈ marks a conversion by molar mass, not a printed value.

The source of these data is ChEMBL document CHEMBL5154820 (Eur J Med Chem, 2022).

In data set [1] the test system is HeLa. Briefly: Antiproliferation activity against human HeLa cells assessed as reduction in cell growth measured after 48 to 72 hrs by CCK-8 assay. In kind it is functional, cell-based. Background: Tetrazolium assays rely on reduction of a dye to a coloured formazan, in cell work by metabolically active cells.
Data set [2] has as its system SiHa. Briefly: Antiproliferation activity against human SiHa cells assessed as reduction in cell growth measured after 48 to 72 hrs by CCK-8 assay. The class given is functional, cell-based.
The nature of data set [3]: Antiproliferation activity against human MS751 cells assessed as reduction in cell growth measured after 48 to 72 hrs by CCK-8 assay. In kind it is functional, cell-based.
Data set [4] relates to HeLa. The data set is described as follows: Induction of cell cycle arrest in human HeLa cells assessed as S-phase at 3 nM measured after 24 hrs by propidium iodide staining based flow cytometric analysis analysis ( Rvb = 23.4%). In kind it is functional. On the technique in general: In flow cytometry, cells or beads pass a laser one at a time.
For data set [5], the system named is HeLa. Briefly: Induction of cell cycle arrest in human HeLa cells assessed as 4N cells at 3 nM measured after 24 hrs by propidium iodide staining based flow cytometric analysis analysis ( Rvb = 17.1%). In kind it is functional.
The test system of data set [6] is HeLa. Briefly: Induction of cell cycle arrest in human HeLa cells assessed as >4N cells at 3 nM measured after 24 hrs by propidium iodide staining based flow cytometric analysis analysis relative to control. In kind it is functional.
Data set [7] has as its system HeLa. Briefly: Induction of cell cycle arrest in human HeLa cells assessed as accumulation of cells at G2/M phase at 6 nM after 24 hrs by propidium iodide staining based flow cytometric analysis (reference value: 17.1%). In kind it is functional.
Data set [8] deals with HeLa. Briefly: Induction of apoptosis in human HeLa cells assessed as late apoptotic cells at 1.5 nM measured after 24 hrs by Annexin V-FITC/7-AAD staining based flow cytometric analysis (reference value: 5.22%). In kind it is functional.
The test system of data set [9] is HeLa. The data set is described as follows: Antimigratory activity against human HeLa cells at 3 nM measured after 24 hrs by scratch wound healing based fluorescence inverted microscopic analysis. The class given is functional.
Data set [10] relates to HeLa. Briefly: Antimigratory activity against human HeLa cells at 6 nM measured after 24 hrs by scratch wound healing based fluorescence inverted microscopic analysis. In kind it is functional.
Data set [11] relates to HeLa. The data set is described as follows: Antiproliferative activity against human HeLa cells assessed as reduction in cell growth measured after 48 to 72 hrs by CCK-8 assay. The class given is functional, cell-based.
The nature of data set [12]: Antiproliferative activity against human HeLa/DDP cells assessed as reduction in cell growth measured after 48 to 72 hrs by CCK-8 assay. In kind it is functional, cell-based.
Data set [13] can be described thus: Antiproliferative activity against human SiHa/DDP cells assessed as reduction in cell growth measured after 48 to 72 hrs by CCK-8 assay. In kind it is functional, cell-based, SiHa/cDDP.
Data set [14] concerns SiHa. The data set is described as follows: Antiproliferative activity against human SiHa cells assessed as reduction in cell growth measured after 48 to 72 hrs by CCK-8 assay. The class given is functional, cell-based.
Data set [15] is described as follows: Aqueous solubility of compound at pH 7.0 phosphate buffer incubated overnight by HPLC analysis analysis. The class given is physicochemical.
Data set [16] can be described thus: Aqueous solubility of compound at pH 7.4 in phosphate buffer incubated overnight by HPLC analysis. The class given is physicochemical.
Data set [17] is described as follows: Aqueous solubility of compound at pH 2.0 in phosphate buffer incubated overnight by HPLC analysis. The class given is physicochemical.
Data set [18] can be described thus: Octanol-water partition coefficient, logP of the compound incubated overnight by HPLC analysis. The class given is physicochemical.
Data set [19] can be described thus: Cytotoxicity against HK-2 cells assessed as reduction in cell growth measured after 24 hrs by microplate reader analysis. In kind it is toxicity, cell-based. As to conditions: human.
Data set [20] concerns the target Tubulin beta (Homo sapiens) (UniProt P68371+Q9H4B7+Q13509+P04350+Q3ZCM7+P07437+Q13885+Q9BVA1+Q9BUF5+A6NNZ2). The data set is described as follows: Binding affinity to beta-tubulin colchicine binding site in human HeLa cells assessed as decrease of adduct formation by measuring gray value measured at 25 uM incubated for 2 hrs followed by addition of EBI measured after 1.5 hrs by EBI competition based Western blotting analysis. In kind it is cell-based. To be noted: time 3.5 hrs.

Data set [21] relates to HeLa. Briefly: Induction of cell cycle arrest in human HeLa cells assessed as < 2N cells at 0.2 uM measured after 24 hrs by propidium iodide staining based flow cytometric analysis analysis ( Rvb = 7.07%). The class given is functional.
Data set [22] deals with HeLa. The data set is described as follows: Induction of cell cycle arrest in human HeLa cells assessed as >4N cells at 0.4 uM measured after 24 hrs by propidium iodide staining based flow cytometric analysis analysis ( Rvb = 8.84%). The class given is functional.
In data set [23] the test system is HeLa. Briefly: Induction of apoptosis in human HeLa cells assessed as early apoptotic cells at 0.1 uM measured after 24 hrs by Annexin V-FITC/7-AAD staining based flow cytometric analysis (reference value: 20.8%). The class given is functional.
Data set [24] concerns HeLa. The data set is described as follows: Induction of apoptosis in human HeLa cells assessed as necrotic cells at 0.4 uM measured after 24 hrs by Annexin V-FITC/7-AAD staining based flow cytometric analysis (reference value: 0.56%). In kind it is functional.
In data set [25] the test system is HeLa. The data set is described as follows: Antimigratory activity against human HeLa cells at 0.1 uM measured after 24 hrs by scratch wound healing based fluorescence inverted microscopic analysis. The class given is functional.
Data set [26] can be described thus: Cmax in C57 nude mouse at 30 mg/kg, ip measured at 0.083 to 24 hrs by LC/MS/MS analysis. Further details: dose 30 mg/kg, time 0.083-24 hrs, route ip. In kind it is ADME, organism-based. To be noted: in vivo.
Data set [27] in a line: AUC(0 to t) in C57 nude mouse at 30 mg/kg, ip measured at 0.083 to 24 hrs by LC/MS/MS analysis. The class given is ADME, organism-based. Set-up: dose 30 mg/kg, time upper 24 hrs, time lower 0.083 hrs, route ip. To be noted: in vivo.
The nature of data set [28]: Acute toxicity against ICR mouse assessed as morphological changes in spleen at 1000 mg/kg, ip measured after 14 days by H and E staining method. As to conditions: in vivo, 336 h, time 14 day. In kind it is organism-based.
The test system of data set [29] is HeLa. The data set is described as follows: Antitumor activity against human HeLa cells xenografted in BABL/ mouse assessed as tumor growth inhibition at 60 mg/kg, ip administered daily for 21 days relative to control. The class given is functional. As to conditions: 504 h, time 21 day, read-out: TGI. (Xenograft models place foreign cells or tissue in a host animal.)

Data set [30] relates to HeLa. Briefly: Antitumor activity against human HeLa cells xenografted in BABL/c mouse assessed assessed as reduction in tumor volume at 60 mg/kg, ip administered daily for 21 days and measured every 3 day ( Rvb = 2336 mm3). The class given is functional. As to conditions: time 21 day.
The test system of data set [31] is HeLa. Briefly: Antitumor activity against human HeLa cells xenografted in BABL/c mouse assessed assessed as reduction in tumor volume at 30 mg/kg, ip administered daily for 21 days followed by addition of 3 mg/kg DDP for every 2 days and measured every 3 days ( Rvb = 2336 mm3). The class given is functional. To be noted: time 21 day.
Data set [32] can be described thus: Nephrotoxicity in BABL/c mouse assessed as increased urea nitrogen level at 30 mg/kg, ip administered daily for 21 days followed by addition of 3 mg/kg DDP for every 2 days relative to vehicle. In kind it is toxicity, organism-based. As to conditions: in vivo, 504 h, time 21 day.
The nature of data set [33]: Toxicity against BABL/c mouse assessed as morphological changes in kidney at 30 to 60 mg/kg, ip administered daily for 21 days by H and E staining method. In kind it is organism-based. To be noted: in vivo, 504 h, dose 30-60 mg/kg, time 21 day.
Data set [34] in a line: Toxicity against BABL/c mouse assessed as morphological changes in liver at 30 to 60 mg/kg, ip administered daily for 21 days by H and E staining method. In kind it is organism-based. As to conditions: in vivo, 504 h, dose 30-60 mg/kg, time 21 day.
Data set [35] in a line: Toxicity against BABL/c mouse assessed as morphological changes in spleen at 30 mg/kg, ip administered daily for 21 days followed by addition of 3 mg/kg DDP for every 2 days by H and E staining method. As to conditions: in vivo, 504 h, time 21 day. The class given is organism-based.

As to `COc1ccc(/C=C\c2cc(OC)c(OC)c(OC)c2)cc1O` [COMBRETASTATIN A4], the IC50 is 4.2 nM in the data set with HeLa [1]; 29 nM in the data set on SiHa [2]; 8 nM in data set [3]; 4.2 nM with HeLa [11]; 10300 nM in [12]; 14400 nM in data set [13]. In the data set on SiHa [14], the IC50 was found to be 29 nM. Moreover, the Activity in the data set on HeLa [4] stood at 12.1%; in the data set on HeLa [5] it was 28.2%; with HeLa [6], 17%; in the data set on HeLa [7], 35.3%; in the data set on HeLa [8], 6.68%; with HeLa [9] it was 57%. This molecule also came in with an Activity in the data set on HeLa [10] of 73%. Besides, the figures for the solubility in data set [15], in data set [16] and in [17] were 9.85 µg/mL (≈ 31.1 µM), 4.34 µg/mL (≈ 13.7 µM) and 3.23 µg/mL (≈ 10.2 µM), respectively. In [18], this molecule registered a logP of 2.04. The concentration for half-maximal inhibition (IC50) at 24 h in data set [19] amounted to 116000 nM.
With `CCOc1ccc(-c2cncnc2-c2cc(OC)c(OC)c(OC)c2)cc1Cl`, the Activity in data set [20] amounted to 1.17; with HeLa [21], 0.59%; in the data set with HeLa [22], 1.58%; with HeLa [23] it was 35.9%; in the data set with HeLa [24], 0.11%; in the data set on HeLa [25], 3%. Also, the Activity entry in data set [28] is on record as “Non-Toxic”; in the data set with HeLa [30], 1083 mm3; in the data set on HeLa [31], 724 mm3; in data set [32] it was 1.3%; in [33], “Non-Toxic”; in data set [34], “Non-Toxic”. Besides, the Activity entry in data set [35] was “Non-Toxic”. Also, the IC50 in the data set with HeLa [1] turned out to be 90 nM; in the data set with SiHa [2], 150 nM; in data set [3], 110 nM; with HeLa [11] it was 90 nM; in data set [12], 7210 nM; in data set [13], 6280 nM. For the same molecule, the half-maximal inhibitory concentration (IC50) with SiHa [14] was 150 nM. The solubility in data set [15] came out at 8.12 µg/mL (≈ 20.3 µM); in data set [16], 17.1 µg/mL (≈ 42.8 µM); in data set [17] it was 31.7 µg/mL (≈ 79 µM). In [18], this molecule showed a logP of 2.36. In data set [19], the IC50 at 24 h turned out to be 188000 nM. The maximum concentration (Cmax) in data set [26] was determined as 6220 ng/mL. The molecule also registered an AUC(0-t) in data set [27] of 5610 ng·h/mL. Further, the inhibition in vivo at 60 mg/kg with HeLa [29] was 58%.
